Laboratory results from patent US8877748B2, “Heterocyclic fused anthraquinone derivatives, manufacturing method and pharmaceutical composition using thereof” (National Defense Medical Center, priority 2012, dated 2014).

Key:
[1] = system: UACC-257; experiment: NCI one-dose screening, melanoma UACC-257; format: cell-based, human; conditions: 10 μM
[2] = system: SK-MEL-2; experiment: NCI one-dose screening, melanoma SK-MEL-2; format: cell-based, human; conditions: 10 μM
[3] = system: HOP-92; experiment: NCI one-dose screening, non-small cell lung cancer HOP-92; format: cell-based, human; conditions: 10 μM
[4] = system: NCI-H23; experiment: NCI one-dose screening, non-small cell lung cancer NCI-H23; format: cell-based, human; conditions: 10 μM
[5] = system: K562cell line; experiment: NCI one-dose screening, leukemia K562; format: cell-based, human; conditions: 10 μM
[6] = system: NCI-H460; experiment: NCI one-dose screening, non-small cell lung cancer NCI-H460; format: cell-based, human; conditions: 10 μM
[7] = system: HT29; experiment: NCI one-dose screening, colon cancer HT29; format: cell-based, human; conditions: 10 μM
[8] = system: UO-31; experiment: NCI one-dose screening, renal cancer UO-31; format: cell-based, human; conditions: 10 μM
[9] = system: EKVX; experiment: NCI one-dose screening, non-small cell lung cancer EKVX; format: cell-based, human; conditions: 10 μM
[10] = system: MDA, -MB-435; experiment: NCI one-dose screening, breast cancer MDA, -MB-435; format: cell-based, human; conditions: 10 μM; listed under Melanoma
[11] = system: PC-3 prostate cancer cell line; experiment: SRB assay cell viability, PC-3 prostate cancer cell line; format: cell-based, human; conditions: Homo sapiens, PC-3 prostate cancer cell line, Table II prints no unit, μM printed, read-out: SRB assay: 50% inhibition of cancer cell proliferation of sample concentration (IC50) of PC-3 prostate cancer cell line
[12] = system: MDA-MB-468; experiment: NCI one-dose screening, breast cancer MDA-MB-468; format: cell-based, human; conditions: 10 μM
[13] = NCI one-dose screening, renal cancer A489; format: cell-based, human; conditions: 10 μM
[14] = system: NCl/ADR-RES; experiment: NCI one-dose screening, breast cancer NCl/ADR-RES; format: cell-based, human; conditions: 10 μM; listed under Ovarian cancer
[15] = system: 786-O; experiment: NCI one-dose screening, renal cancer 786-O; format: cell-based, human; conditions: 10 μM
[16] = system: NCI-H522; experiment: NCI one-dose screening, non-small cell lung cancer NCI-H522; format: cell-based, human; conditions: 10 μM
[17] = system: OVCAR-3; experiment: NCI one-dose screening, ovarian cancer OVCAR-3; format: cell-based, human; conditions: 10 μM
[18] = system: MOLT-4; experiment: NCI one-dose screening, leukemia MOLT-4; format: cell-based, human; conditions: 10 μM
[19] = system: UACC-62; experiment: NCI one-dose screening, melanoma UACC-62; format: cell-based, human; conditions: 10 μM
[20] = system: SK-MEL-28; experiment: NCI one-dose screening, melanoma SK-MEL-28; format: cell-based, human; conditions: 10 μM
[21] = system: SR; experiment: NCI one-dose screening, leukemia SR; format: cell-based, human; conditions: 10 μM
[22] = system: PC-3; experiment: NCI one-dose screening, prostate cancer PC-3; format: cell-based, human; conditions: 10 μM
[23] = system: IGROV1; experiment: NCI one-dose screening, ovarian cancer IGROV1; format: cell-based, human; conditions: 10 μM
[24] = system: BT-549; experiment: NCI one-dose screening, breast cancer BT-549; format: cell-based, human; conditions: 10 μM
[25] = system: SNB-75; experiment: NCI one-dose screening, CNS cancer SNB-75; format: cell-based, human; conditions: 10 μM
[26] = system: LOX IMVI; experiment: NCI one-dose screening, melanoma LOX IMVI; format: cell-based, human; conditions: 10 μM
[27] = system: SF-539; experiment: NCI one-dose screening, CNS cancer SF-539; format: cell-based, human; conditions: 10 μM
[28] = system: MALME-3M; experiment: NCI one-dose screening, melanoma MALME-3M; format: cell-based, human; conditions: 10 μM
[29] = system: SF-268; experiment: NCI one-dose screening, CNS cancer SF-268; format: cell-based, human; conditions: 10 μM
[30] = system: HS 578-T; experiment: NCI one-dose screening, breast cancer HS 578-T; format: cell-based, human; conditions: 10 μM; Breast cancer
[31] = system: OVCAR-5; experiment: NCI one-dose screening, ovarian cancer OVCAR-5; format: cell-based, human; conditions: 10 μM
[32] = system: DU145; experiment: NCI one-dose screening, prostate cancer DU145; format: cell-based, human; conditions: 10 μM
[33] = system: SNB-19; experiment: NCI one-dose screening, CNS cancer SNB-19; format: cell-based, human; conditions: 10 μM
[34] = system: CAKI-1; experiment: NCI one-dose screening, renal cancer CAKI-1; format: cell-based, human; conditions: 10 μM
[35] = system: NCI-H226; experiment: NCI one-dose screening, non-small cell lung cancer NCI-H226; format: cell-based, human; conditions: 10 μM
[36] = system: HCC-2998; experiment: NCI one-dose screening, colon cancer HCC-2998; format: cell-based, human; conditions: 10 μM
[37] = system: HOP-62; experiment: NCI one-dose screening, non-small cell lung cancer HOP-62; format: cell-based, human; conditions: 10 μM
[38] = system: KM12; experiment: NCI one-dose screening, colon cancer KM12; format: cell-based, human; conditions: 10 μM
[39] = system: SK-OV-3; experiment: NCI one-dose screening, ovarian cancer SK-OV-3; format: cell-based, human; conditions: 10 μM
[40] = system: TK-10; experiment: NCI one-dose screening, renal cancer TK-10; format: cell-based, human; conditions: 10 μM
[41] = system: ACHN; experiment: NCI one-dose screening, renal cancer ACHN; format: cell-based, human; conditions: 10 μM
[42] = system: SK-MEL-5; experiment: NCI one-dose screening, melanoma SK-MEL-5; format: cell-based, human; conditions: 10 μM
[43] = system: T-47D; experiment: NCI one-dose screening, breast cancer T-47D; format: cell-based, human; conditions: 10 μM
[44] = system: OVCAR-8; experiment: NCI one-dose screening, ovarian cancer OVCAR-8; format: cell-based, human; conditions: 10 μM
[45] = system: SN12C; experiment: NCI one-dose screening, renal cancer SN12C; format: cell-based, human; conditions: 10 μM
[46] = system: HL-60, TB; experiment: NCI one-dose screening, leukemia HL-60, TB; format: cell-based, human; conditions: 10 μM
[47] = system: U251; experiment: NCI one-dose screening, CNS cancer U251; format: cell-based, human; conditions: 10 μM
[48] = system: HCT-116; experiment: NCI one-dose screening, colon cancer HCT-116; format: cell-based, human; conditions: 10 μM
[49] = system: RXF, 393; experiment: NCI one-dose screening, renal cancer RXF, 393; format: cell-based, human; conditions: 10 μM
[50] = system: MDA-MB-231/ATCC; experiment: NCI one-dose screening, breast cancer MDA-MB-231/ATCC; format: cell-based, human; conditions: 10 μM
[51] = system: human tumor cell lines; experiment: NCI one-dose screening, Mean / Delta / Range of growth percent over all tested cell lines; format: cell-based; conditions: 10 μM
[52] = system: M14; experiment: NCI one-dose screening, melanoma M14; format: cell-based, human; conditions: 10 μM
[53] = system: PRMI-8226 cell line; experiment: NCI one-dose screening, leukemia PRMI-8226; format: cell-based, human; conditions: 10 μM
[54] = system: COLO 205; experiment: NCI one-dose screening, colon cancer COLO 205; format: cell-based, human; conditions: 10 μM
[55] = system: SF-295; experiment: NCI one-dose screening, CNS cancer SF-295; format: cell-based, human; conditions: 10 μM
[56] = system: MCF7; experiment: NCI one-dose screening, breast cancer MCF7; format: cell-based, human; conditions: 10 μM
[57] = system: HCT-15; experiment: NCI one-dose screening, colon cancer HCT-15; format: cell-based, human; conditions: 10 μM
[58] = system: A549/ATCC; experiment: NCI one-dose screening, non-small cell lung cancer A549/ATCC; format: cell-based, human; conditions: 10 μM

O=C1c2ccccc2C(=O)c2c1cc(Sc1ccc(F)cc1F)c1nsnc21 [C39, 4-(2,4-difluorophenylthio)anthra[2,1-c] [1,2,5]thiadiazol-6,11-dione]
Growth Percent UACC-257 [1]: 43.93%
Growth Percent SK-MEL-2 [2]: 51.79%
Growth Percent HOP-92 [3]: −18.39%
Growth Percent NCI-H23 [4]: 9.53%
Growth Percent K562 [5]: −21.06%
Growth Percent NCI-H460 [6]: 83.60%
Growth Percent HT29 [7]: 102.45%
Growth Percent UO-31 [8]: 70.30%
Growth Percent EKVX [9]: 98.12%
Growth Percent MDA-MB-435 [10]: −85.27%
IC50 [11]: 14.8 µM
Growth Percent MDA-MB-468 [12]: −86.96%
Growth Percent A498 [13]: 50.80%
Growth Percent NCI/ADR-RES [14]: −26.24%
Growth Percent 786-0 [15]: 3.74%
Growth Percent NCI-H522 [16]: 61.06%
Growth Percent OVCAR-3 [17]: −52.32%
Growth Percent MOLT-4 [18]: −41.57%
Growth Percent UACC-62 [19]: 53.27%
Growth Percent SK-MEL-28 [20]: 79.45%
Growth Percent SR [21]: 0.20%
Growth Percent PC-3 [22]: −9.72%
Growth Percent IGROV1 [23]: 975%
Growth Percent BT-549 [24]: 66.40- Percent
Growth Percent SNB-75 [25]: 42.86%
Growth Percent LOX IMVI [26]: −42.03%
Growth Percent SF-539 [27]: 58.79%
Growth Percent MALME-3M [28]: 39.46%
Growth Percent SF-268 [29]: 8.47%
Growth Percent HS 578T [30]: 50.08%
Growth Percent OVCAR-5 [31]: 110.21%
Growth Percent DU145 [32]: 41.32%
Growth Percent SNB-19 [33]: 87.35%
Growth Percent CAKI-1 [34]: 24.02%
Growth Percent NCI-H226 [35]: 88.85%
Growth Percent HCC-2998 [36]: 107.02%
Growth Percent HOP-62 [37]: 58.46%
Growth Percent KM12 [38]: 51.79%
Growth Percent SK-OV-3 [39]: 92.58%
Growth Percent TK-10 [40]: 111.93%
Growth Percent ACHN [41]: 34.93%
Growth Percent SK-MEL-5 [42]: 48.53%
Growth Percent T-47D [43]: −28.61%
Growth Percent OVCAR-8 [44]: 0.32%
Growth Percent SN12C [45]: 9.12%
Growth Percent HL-60(TB) [46]: −37.71%
Growth Percent U251 [47]: 34.47%
Growth Percent HCT-116 [48]: −63.06%
Growth Percent RXF 393 [49]: 36.69%
Growth Percent MDA-MB-231/ATCC [50]: −9.73%
Growth Percent Delta ([51]; delta over all cell lines): 119.50%
Growth Percent Mean ([51]; mean over all cell lines): 32.54%
Growth Percent Range ([51]; range over all cell lines): 198.89%
Growth Percent M14 [52]: 53.77%
Growth Percent RPMI-8226 [53]: 6.29%
Growth Percent COLO 205 [54]: 104.04%
Growth Percent SF-295 [55]: 68.77%
Growth Percent MCF7 [56]: 6.58%
Growth Percent HCT-15 [57]: 45.84%
Growth Percent A549/ATCC [58]: 111.54%
